The text below walks through data of patent US10577399B2, “Modified lantibiotics and methods of making and using the modified lantibiotics” (priority 2016, dated 2020).

No end group written: not given here.

In test [1] the test system is M. luteus ATCC 10240. Briefly: Deferred antagonism (overlay) assay, zone of inhibition. It counts as cell-based, Micrococcus luteus. Conditions: relative to wild-type strain. As to the method:
The deferred antagonism assay was performed as previously described^39. S. mutans strains were grown overnight in THyex broth at 37° C. The cultures were diluted to 0.1 OD OD600 and grown to mid-logarithmic phase before diluting to 0.05 OD600. Then, 2 μl of the cultures were spotted on THyex plates in duplicates of triplicates. The wild-type S. mutans JH1140 and S. mutans ΔmutA were used as positive and negative controls for activity, respectively. The plates were incubated for 18 hours in a candle jar at 37° C. After incubation, the strains were heat killed at 65° C. for 90 minutes. Fresh M. luteus grown overnight at 37° C. on THyex plates were used to inoculate pre-warmed THyex broth. The culture was grown to 0.6 to 0.8 OD before diluting to 0.2 OD600. The culture was further diluted 25-fold in melted (42° C.) THyex top agar. Approximately 5 mL of the top agar solution was spread on the heat killed bioassay plates and allowed to cool for 10 minutes. The plates were then placed in the incubator (at 37° C.) for 18 hours.
Streptococcus mutans ATCC 55676 (wild-type) and the mutants that were at an OD600 of 0.2 were spotted in triplicates on a pre-warmed THyex agar plate (150×15 mm) and allowed to dry. This assay was performed in this manner to ensure that each sample had the same colony size for comparing zones of inhibition. The plate was incubated for 24 hours then placed in an oven at 50° C. for thirty minutes to kill the bacteria before the indicator strain was overlaid. Heat killing the bacteria prevents any further antimicrobial compound production so that results seen are from single day incubation. Zone diameter was measured in millimeters across the plate and compared to wild-type (i.e. zone I for ATCC compared to zone I of Trp4Ala, etc.).

Test [2] relates to M. luteus ATCC 10240. It counts as cell-based, Micrococcus luteus. Conditions: Table 11. As for the experimental part: (§1) Minimum Inhibitory Concentrations (MICs) were determined according to previously published protocol^31. A stock solution of the antibiotics tested was first suspended in 50% acetonitrile (ACN) at a concentration 640 μg/mL. This stock was subsequently diluted 2-fold until a final concentration 0.156 μg/mL was reached. Subsequently, 10 μl of each dilution was placed into a well on a 96 well microtiter plate. M. luteus ATCC 10240, S. pneumoniae, and B. subtilis PY79 were grown overnight in THyex at 37° C. Cultures were diluted in the morning to 0.1 OD600 and allowed to grow to 0.6 OD600. This culture was diluted a 100-fold in fresh THyex media and then 400 μl of this culture was added to 10 mL of fresh THyex. The suspension contains approximately 10^5 colony forming units (CFUs). The bacterial suspension (190 μL) was added to each well containing 10 μL of antibiotic suspension or solvent blank. […] Following the 15 minute pretreatment, 190 μL was added to each well as described above. The MIC is described as the […] concentration of antibiotic that prevented visible growth after 24 hours.
FIG. 11 illustrates the bioactivity of various core peptide mutants of mutacin 1130. The activity of the core mutant peptides is expressed as a ratio of the area of the zone of inhibition of each mutant strain to the area of the zone of inhibition of the wild-type strain against indicator strain of Micrococcus luteus. […] The deferred antagonism assay is an overlay assay of the indicator strain onto plates containing heat killed colonies of the mutacin producer strain after growing overnight. Core peptide mutants having inhibitory activity were isolated and the purified products were further evaluated by a standard minimum inhibitory concentration (MIC) assay.

Test [3] deals with S. pneumoniae ATCC 27336. It counts as cell-based, Streptococcus pneumoniae. Conditions: Table 11. As to the method: as §1, with “hours. […]” for “hours.”
The subject of test [4] is S. aureus ATCC 25923. Briefly: MIC/MLC assay against S. aureus. Conditions: Table 11. It counts as cell-based, Staphylococcus aureus.
The subject of test [5] is C. accolens ATCC 49725. The experiment in a line: MIC/MLC assay against C. accolens ATCC 49725. Type of test: cell-based. The following applies: THyex broth with 1% Tween 80.
Test [6] has as its system C. accolens KPL 1818. The experiment in a line: MIC/MLC assay against C. accolens KPL 1818. The following applies: THyex broth with 1% Tween 80. It counts as cell-based.

For “C-terminal fluorescein conjugate of mutacin 1140: mu1140-COOH coupled to 5-(aminoacetamido)fluorescein at the C-terminus (FKSWSLCTPGCARTGSFNSYCC-{5‑(aminoacetamido)fluorescein}; ends and bridges not checked; UniProt O68586 42-63, looked up)”, in test [1], the “zone of inhibition / inhibitory activity in deferred antagonism assay” value is on record as “has the inhibitory activity”.
With “S5A:A12S dehydrated: core peptide mutant of mutacin 1140, positions 5, 12 replaced by Alanine and Serine; dehydrated form (FKSWALCTPGCSRTGSFNSYCC; ends and bridges not checked; also: dehydrated form; UniProt O68586 42-63, looked up, variant S5A A12S)”, in test [2], the “M. luteus ATCC 10240 MIC” value was determined as 0.125 micrograms per milliliter and the “M. luteus ATCC 10240 MLC” value is 0.25 micrograms per milliliter. In addition, in test [3], the “S. pneumonia ATCC 27336 MIC” value is 0.125 micrograms per milliliter and the “S. pneumonia ATCC 27336 MLC” value was determined as 0.125 micrograms per milliliter. In test [4], the “S. aureus ATCC 25923 MIC” value is given as 16 micrograms per milliliter and the “S. aureus ATCC 25923 MLC” value is listed as 32 micrograms per milliliter. Moreover, in test [5], the “C. accolens ATCC 49725 MIC” value came to 0.25 micrograms per milliliter and the “C. accolens ATCC 49725 MLC” value is 0.25 micrograms per milliliter. In addition, in test [6], the “C. accolens KPL 1818 MIC” value worked out at 0.5 micrograms per milliliter and the “C. accolens KPL 1818 MLC” value amounted to 1 micrograms per milliliter.
“S5G:T14G: core peptide mutant of mutacin 1140, positions 5, 14 replaced by Glycine and Glycine (FKSWGLCTPGCARGGSFNSYCC; ends and bridges not checked; cysteine pairing not given here; UniProt O68586 42-63, looked up, variant S5G T14G)”: in test [2], the “M. luteus ATCC 10240 MIC” value came to 0.5 micrograms per milliliter and the “M. luteus ATCC 10240 MLC” value was 0.5 micrograms per milliliter. Besides, in test [3], the “S. pneumonia ATCC 27336 MIC” value stood at 2 micrograms per milliliter and the “S. pneumonia ATCC 27336 MLC” value was determined as 2 micrograms per milliliter. Also, in test [4], the “S. aureus ATCC 25923 MIC” value was found to be 8 micrograms per milliliter and the “S. aureus ATCC 25923 MLC” value amounted to 16 micrograms per milliliter. Further, in test [5], the “C. accolens ATCC 49725 MIC” value is 1 micrograms per milliliter and the “C. accolens ATCC 49725 MLC” value came out at 1 micrograms per milliliter. In test [6], the “C. accolens KPL 1818 MIC” value turned out to be 0.5 micrograms per milliliter and the “C. accolens KPL 1818 MLC” value was determined as 1 micrograms per milliliter.
With “S5G:R13A:T14A: core peptide mutant of mutacin 1140, positions 5, 13 and 14 replaced by Glycine, Alanine and Alanine (FKSWGLCTPGCAAAGSFNSYCC; ends and bridges not checked; cysteine pairing not given here; UniProt O68586 42-63, looked up, variant S5G R13A T14A)”, in test [2], the “M. luteus ATCC 10240 MIC” value is 2 micrograms per milliliter and the “M. luteus ATCC 10240 MLC” value stood at 16 micrograms per milliliter. Further, in test [3], the “S. pneumonia ATCC 27336 MIC” value turned out to be 8 micrograms per milliliter and the “S. pneumonia ATCC 27336 MLC” value is recorded as over 16 micrograms per milliliter. In test [4], the “S. aureus ATCC 25923 MIC” value is recorded as over 32 micrograms per milliliter and the “S. aureus ATCC 25923 MLC” value is over 32 micrograms per milliliter. In addition, in test [5], the “C. accolens ATCC 49725 MIC” value is over 4 micrograms per milliliter and the “C. accolens ATCC 49725 MLC” value was over 4 micrograms per milliliter. In test [6], the “C. accolens KPL 1818 MIC” value is over 4 micrograms per milliliter and the “C. accolens KPL 1818 MLC” value is recorded as over 4 micrograms per milliliter.
With “S5T: core peptide mutant of mutacin 1140, Serine 5 replaced by Threonine (FKSWTLCTPGCARTGSFNSYCC; UniProt O68586 42-63, looked up, variant S5T) [Mutant S5T]”, in test [2], the “M. luteus ATCC 10240 MIC” value stood at 4 micrograms per milliliter and the “M. luteus ATCC 10240 MLC” value worked out at 4 micrograms per milliliter. In test [3], the “S. pneumonia ATCC 27336 MIC” value is recorded as 2 micrograms per milliliter and the “S. pneumonia ATCC 27336 MLC” value is 2 micrograms per milliliter. In test [4], the “S. aureus ATCC 25923 MIC” value was over 32 micrograms per milliliter and the “S. aureus ATCC 25923 MLC” value was over 32 micrograms per milliliter. For the same substance, in test [5], the “C. accolens ATCC 49725 MIC” value was over 4 micrograms per milliliter and the “C. accolens ATCC 49725 MLC” value is given as over 4 micrograms per milliliter. In addition, in test [6], the “C. accolens KPL 1818 MIC” value is given as over 4 micrograms per milliliter and the “C. accolens KPL 1818 MLC” value is given as over 4 micrograms per milliliter.
Consider “R13A:T14A: core peptide mutant of mutacin 1140, positions 13, 14 replaced by Alanine and Alanine (FKSWSLCTPGCAAAGSFNSYCC; UniProt O68586 42-63, looked up, variant R13A T14A)”, for which, in test [2], the “M. luteus ATCC 10240 MIC” value was determined as 0.25 micrograms per milliliter and the “M. luteus ATCC 10240 MLC” value worked out at 0.5 micrograms per milliliter. Moreover, in test [3], the “S. pneumonia ATCC 27336 MIC” value is on record as 2 micrograms per milliliter and the “S. pneumonia ATCC 27336 MLC” value amounted to 2 micrograms per milliliter. Further, in test [4], the “S. aureus ATCC 25923 MIC” value stood at 32 micrograms per milliliter and the “S. aureus ATCC 25923 MLC” value is 32 micrograms per milliliter. Also, in test [5], the “C. accolens ATCC 49725 MIC” value worked out at 0.5 micrograms per milliliter and the “C. accolens ATCC 49725 MLC” value is recorded as 0.5 micrograms per milliliter. Moreover, in test [6], the “C. accolens KPL 1818 MIC” value was determined as 0.5 micrograms per milliliter and the “C. accolens KPL 1818 MLC” value came out at 0.5 micrograms per milliliter.
For the substance “A12T:T14G: core peptide mutant of mutacin 1140, positions 12, 14 replaced by Threonine and Glycine (FKSWSLCTPGCTRGGSFNSYCC; ends and bridges not checked; cysteine pairing not given here; UniProt O68586 42-63, looked up, variant A12T T14G)”, in test [2], the “M. luteus ATCC 10240 MIC” value is given as 0.25 micrograms per milliliter and the “M. luteus ATCC 10240 MLC” value was 0.25 micrograms per milliliter. Moreover, in test [3], the “S. pneumonia ATCC 27336 MIC” value turned out to be 2 micrograms per milliliter and the “S. pneumonia ATCC 27336 MLC” value was determined as 2 micrograms per milliliter. Further, in test [4], the “S. aureus ATCC 25923 MIC” value is over 32 micrograms per milliliter and the “S. aureus ATCC 25923 MLC” value was over 32 micrograms per milliliter. Further, in test [5], the “C. accolens ATCC 49725 MIC” value came to 0.125 micrograms per milliliter and the “C. accolens ATCC 49725 MLC” value is reported as 0.25 micrograms per milliliter. Moreover, in test [6], the “C. accolens KPL 1818 MIC” value was found to be 0.5 micrograms per milliliter and the “C. accolens KPL 1818 MLC” value stood at 1 micrograms per milliliter.
